Measurements from publication PMC9243782 (Aaps Open, 2022).
Read-outs that look alike come from different tables or passages of the source. Each block holds one compound with its values, some of them ahead of it.

What was measured:
[1] = First in human PK study of JOTROL, urine excretion; format: in vivo; details: for CL renal: human, urine
Protocol: For day 2 (24 h post-dose) urine collection, subjects were asked to void their bladder within 15 min before the end of the collection interval (12–24 h). For other collections, subjects were asked to void their bladder within 10 min before the end of each collection interval. Urine voided at the intersection of two intervals was included in the earlier interval. Any urine voided by subjects but not collected was documented.
The volume of urine collected in each interval was measured (individual urine volumes are on file), and two aliquots of equal volume were dispensed into polypropylene tubes for each interval. Aliquots were stored in a − 80 °C freezer, pending analysis; remaining urine from each subject was discarded.

[2] = First in human single ascending dose and food effect PK study of JOTROL, plasma; details: for Tmax / AUC(0-t) / half-life / AUC(0-inf) / k el / Cmax: both, human; for AUC(0-inf): AUC0-inf; for k el: Kel
Protocol: A total of 24 healthy, adult male or female volunteers were included in study part 1. […] A food effect arm was also included as part 2. […] Given that the in life portion of the study was done during the pandemic, total number, gender, ethnicity, etc., of the subjects was not mandated. A total of 4 study periods were included in this study with washout of at least 14 days between doses. […] After the completion of each cohort, an evaluation of the safety data was performed prior to determining whether to proceed with enrollment for the next scheduled dose level, to modify the dose, or to discontinue the study. […] The aliquots were transferred to a - 80 °C freezer (no more than 60 min passed between the start of centrifugation and aliquot storage), pending analysis/shipment to the analytical facility. […] Samples are extracted by a protein precipitation extraction procedure, and the compounds are detected and quantified by tandem mass spectrometry in positive ion mode on an MDS Sciex API 6500+ equipped with a Turbo Ionspray® interface. […] All concentration values that were below the lower limit of quantification (BLQ) occurring prior to dosing as well as samples with no reportable value (NRV) occurring prior to dosing were replaced by “0.00”; otherwise, they (BLQ and NRV) were set to missing for tabulation, graphical representation, and calculation purposes. PK analyses were performed using Phoenix WinNonlin® version 8.2, which was validated by Syneos Health. The WinNonlin noncompartmental analysis (NCA) module was used [NT]0-t (last detectable concentration), AUC0-inf (infinity), residual area (%), Cmax, Tmax, T1/2 el (elimination half-life), and Kel (elimination rate constant). […] Power model included the PK parameter as the response variable and dose (mg) as the explanatory variable. For this model, the variable dose was treated as a continuous variable. For evaluation of the food-effect, PK data (ln-transformed AUC0-t, AUC0-inf, Cmax and untransformed Tmax) reported under fed conditions (Period 4) and under fasting conditions (for the same dose level) were compared using analysis of variance (ANOVA) from SAS®. The ratio (fed/fasting) and 90% geometric CI were also calculated for AUC0-t, AUC0-inf, and Cmax.

[3] = cited from earlier work
[4] = plasma, po, 200 mg, resveratrol in plasma, mean, Treatment A: JOTROL 200 mg single oral dose, fasting
[5] = plasma, po, 500 mg, resveratrol in plasma, mean, Treatment B: JOTROL 500 mg single oral dose, fasting
[6] = plasma, po, 500 mg, resveratrol in plasma, mean, Treatment D: JOTROL 500 mg single oral dose, fed (high-fat meal)
[7] = plasma, po, 700 mg, resveratrol in plasma, mean, Treatment C: JOTROL 700 mg single oral dose, fasting
[8] = 500 mg caplets, 5 g, mean ± SD, ref Boocock et al. ([2007])
[9] = 500 mg caplets, 5 g, mean ± SD, ref Brown et al. ([2010])
[10] = Friedreich's ataxia study, ref Yiu et al. ([2015])

SMILES: Oc1ccc(/C=C/c2cc(O)cc(O)c2)cc1 [Resveratrol, 3,5,4′-stilbenotriol]
CL renal ([1]; oral, resveratrol after JOTROL 200 to 700 mg, read-out: Renal clearance, range over treatments): 2.33 to 4.17 mL/min
CL renal ([1]; oral, resveratrol after JOTROL, conversion of 0.14 to 0.25 L/h, read-out: Renal clearance): ~4 mL/min
CL renal ([1]; po, 200 mg, resveratrol renal clearance, mean, Treatment A: JOTROL 200 mg single oral dose, fasting, read-out: CLR (converted)): 4.17 mL/min
CL renal ([1]; po, 500 mg, resveratrol renal clearance, mean, Treatment B: JOTROL 500 mg single oral dose, fasting, read-out: CLR (converted)): 2.33 mL/min
CL renal ([1]; po, 700 mg, resveratrol renal clearance, mean, Treatment C: JOTROL 700 mg single oral dose, fasting, read-out: CLR (converted)): 3.17 mL/min
Renal clearance as share of GFR ([1]; resveratrol after JOTROL): 3 % of GFR
TRmax ([1]; resveratrol in urine, mean, Treatment A: JOTROL 200 mg single oral dose, fasting): 1.5 h
Delay of the peak concentration by food ([2]; JOTROL 500 mg fed vs fasting): approximately 30 min
Dose proportionality of AUC0-t and Cmax (power model) ([2]; JOTROL 200, 500, 700 mg fasting): higher than expected if dose proportional
Gender differences in the exposure of resveratrol ([2]; all JOTROL doses, p = 0.011): mean female AUC values tend to be higher than male values
Tmax ([2]; in vivo, po, 500 mg): 1 h
Tmax ([2]; plasma, oral): ~1 h
AUC(0-t) ([2]; plasma, oral, Mean AUC0-t, range over doses, resveratrol in plasma, JOTROL 200 to 700 mg, fasting): 149 to 886 ng·h/mL
half-life ([2]; plasma, oral, T½, resveratrol in plasma after JOTROL, N low, interpret with caution): ~2 h
Tmax ([2]; plasma, po, 200 mg): 0.999 h
AUC(0-inf) [2, 4]: 215 ng·h/mL
AUC(0-t) ([2]; plasma, po, 200 mg, AUC0-t, resveratrol in plasma, mean, Treatment A: JOTROL 200 mg single oral dose, fasting): 149 ng·h/mL
k el [2, 4]: 0.000153 s⁻¹
half-life ([2]; plasma, po, 200 mg, T1/2 el, resveratrol in plasma, mean, Treatment A: JOTROL 200 mg single oral dose, fasting): 1.26 h
AUC(0-inf) [2, 5]: 574 ng·h/mL
AUC(0-inf) [2, 6]: 613 ng·h/mL
AUC(0-t) ([2]; plasma, po, 500 mg, AUC0-t, resveratrol in plasma, mean, Treatment B: JOTROL 500 mg single oral dose, fasting): 480 ng·h/mL
AUC(0-t) ([2]; plasma, po, 500 mg, AUC0-t, resveratrol in plasma, mean, Treatment D: JOTROL 500 mg single oral dose, fed (high-fat meal)): 306 ng·h/mL
Cmax ([2]; plasma, po, 500 mg, Cmax, resveratrol in plasma, mean, Treatment B: JOTROL 500 mg single oral dose, fasting): 455 ng/mL
k el [2, 5]: 9.22e-05 s⁻¹
k el [2, 6]: 0.000152 s⁻¹
half-life ([2]; plasma, po, 500 mg, T1/2 el, resveratrol in plasma, mean, Treatment B: JOTROL 500 mg single oral dose, fasting): 2.74 h
half-life ([2]; plasma, po, 500 mg, T1/2 el, resveratrol in plasma, mean, Treatment D: JOTROL 500 mg single oral dose, fed (high-fat meal)): 1.71 h
Tmax ([2]; plasma, po, 700 mg): 1.02 h
AUC(0-inf) [2, 7]: 611 ng·h/mL
AUC(0-t) ([2]; plasma, po, 700 mg, AUC0-t, resveratrol in plasma, mean, Treatment C: JOTROL 700 mg single oral dose, fasting): 886 ng·h/mL
Cmax ([2]; plasma, po, 700 mg, Cmax, resveratrol in plasma, mean, Treatment C: JOTROL 700 mg single oral dose, fasting): 805 ng/mL
k el [2, 7]: 0.000126 s⁻¹
half-life ([2]; plasma, po, 700 mg, T1/2 el, resveratrol in plasma, mean, Treatment C: JOTROL 700 mg single oral dose, fasting): 1.6 h
Residual Area ([2]; resveratrol in plasma, mean, Treatment D: JOTROL 500 mg single oral dose, fed (high-fat meal)): 3.7%
Cmax ([3]; 25 mg (overnight fast +3 h), radiolabeled dose, ref Walle et al. ([2004])): < 5 ng/mL
AUC ([3]; 500 mg caplets, 5 g, AUC to infinity, mean ± SD, ref Boocock et al. ([2007])): 1319 ± 780 ng·h/mL
Cmax [3, 8]: 538 ± 391 ng/mL
t1/2 [3, 8]: 8.5 ± 8.2 h
AUC [3, 9]: 4097 ± 4384 ng·h/mL
Cmax [3, 9]: 967 ± 517 ng/mL
t1/2 [3, 9]: 7.85 ± 1.97 h
Cmax ([3]; 1 g encapsulated dose, ref Turner et al., Neurology 85:1383-91, 2015): 85 ng/mL
Cmax ([3]; 2 g, 500 mg encapsulated, mean ± SD, ref Turner et al. ([2015])): 85 ± 184 ng/mL
t1/2 ([3]; 2 g, 500 mg encapsulated, ref Turner et al. ([2015])): 15 h
Cmax ([3]; 2.5 g micronized dose, ref Howells et al., Cancer Prev Res (Phila) 4:1419-1425, 2011): 1942 ng/mL
AUC exposure (estimated) ([3]; 3,000 mg/day of unmodified resveratrol, healthy volunteers, ref published data): 2100 ng·h/mL
Plasma Cmax associated with positive biomarker outcomes (amyloid beta, inflammation modulators) ([3]; Alzheimer's trial, ref Turner et al. [2015], Moussa et al. [2017], Sawda et al. [2017]): 85 ng/mL
Nominal mean plasma Cmax not associated with any efficacy [3, 10]: 128 ng/mL
Nominal plasma mean Cmax associated with positive clinical outcomes [3, 10]: 261 ng/mL

SMILES: Oc1ccc(/C=C/c2cc(O)cc(O)c2)cc1 [micronized resveratrol]
Absorption ([3]; human, in vivo, po): ~ 70%

Effect of food consumption on metabolite concentrations ([2]; JOTROL 500 mg fed vs fasting): significantly decreased
AUC(0-t) ([2]; plasma, oral, Mean AUC0-t, range over doses, metabolite in plasma, increasing JOTROL (resveratrol) doses): 12000 to 54500 ng·h/mL
Cmax ([2]; plasma, oral, Mean Cmax, range over doses, metabolite in plasma, increasing JOTROL (resveratrol) doses): 6620 to 23600 ng/mL
SMILES: O=S(=O)(O)Oc1cc(O)cc(C=Cc2ccc(O)cc2)c1 [resveratrol-3-sulfate]
